Here are results for two compounds from US6699678B1, “Chlamydia trachomatis specific peptides and their use in diagnostic assays” (Savyon Diagnostics Ltd., priority 1997, dated 2004).

The series is classed as physicochemical. An excerpt: c. Stabilizing the kit for longer shelf life.
Results: The wash buffer that enabled only three washing steps was the one that contained non-ionic detergent, this being the above-noted PBS-TWEEN buffer (see constituent no. (ii) in the above list).
This is also the case for the other reagents used in the improved kit, as mentioned above.

As for `CCN(Cc1cccc(S(=O)(=O)[O-])c1)c1ccc(C(=C2C=CC(=[N+](CC)Cc3cccc(S(=O)(=O)[O-])c3)C=C2)c2ccccc2S(=O)(=O)[O-])cc1.[Na+].[Na+]` [blue brilliant], the “storage stability at 4° C. (in words)” value is given as “for one year” and the “storage stability at 37° C. (in words)” value is given as “stable for one month”.
In the case of `O=S(=O)([O-])c1ccc(N=Nc2c(O)ccc3cc(S(=O)(=O)[O-])ccc23)cc1.[Na+].[Na+]` [yellow sunset], the “storage stability at 4° C. (in words)” value is “for one year” and the “storage stability at 37° C. (in words)” value is “stable for one month”.
